US11560391B2, “Sulfonylurea compounds as inhibitors of interleukin-1 activity” (Genentech, Inc., priority 2018, dated 2023)
Like-named read-outs stand apart in the source and are kept apart here.

Target: T1, NLRP3 inflammasome (Homo sapiens, UniProt Q96P20)
T1 construct: freshly isolated from human peripheral blood from healthy donors; StemCells Technologies; host or cells: primary human PBMCs
Assay: NLRP3 inflammasome activation assay in LPS-primed, nigericin-stimulated PBMCs, IL-1β release
Format: cell-based
Conditions: 10 μM nigericin
Method: Some of the following assays were used to determine the inhibitory activity of the compounds on the NLRP3 inflammasome using a common inflammasome activation stimuli-nigericin.
Human peripheral blood mononuclear cells (PBMCs), consisting of lymphocytes (T, B and NK cells), monocytes and dendritic cells, are freshly isolated from human peripheral blood from healthy donors. Cells are obtained through an IRB approved donor program by iXCells Biotechnologies where all the donors are tested for bacterial and viral infections. Cells are purified from peripheral blood using ficoll gradient centrifugation.
Fresh or cryopreserved PMBCs are seeded in V-bottom 96-well plate at 0.5-1×10^5 cells per well and incubated overnight at 37° C. with 5% CO2 in RPMI 1640 medium with GlutaMAX supplement, 4.5 g/L D-glucose, 10% Fetal Bovine Serum (FBS), […] Sodium Pyruvate, 1% Penicillin/Streptomycin, 10 mM HEPES and 0.05 mM of […]. Freshly isolated or cryopreserved KCs cells are seeded in flat-bottom 96-well plates at 0.6-1.5×10^5 cells/well and incubated overnight at 37° C., 5% CO2 in RPMI 1640 Medium with GlutaMAX supplement, FBS, 1% Penicillin/Streptomycin and 10 mM HEPES. The following day, the cells are primed with 100 ng/mL of lipopolysaccharides (LPS; Sigma Aldrich) in FBS-free RPMI 1640 for 3 h. After the priming step, the media is removed and PBMCs are pre-incubated with serial concentrations of test compounds (0.00017-10 uM) or vehicle (DMSO) for 30 min in FBS-free media prior to addition of the NLRP3 activator. Cells are then stimulated with 10 μM Nigericin (Sigma Aldrich; InvivoGen) for 1.5 h. Plates were centrifuged at 1,500 rpm for 3 minutes to pellet cells and supernatant was transferred into new plates for subsequent experiments.
For ELISA assays cells are seeded into 96-well plates. Post study, supernatants are removed and the levels of mature IL-1β, IL18 and TNFα (Quantikine ELISA, R&D systems) are measured in cell conditioned media by ELISA according to manufacturer's instructions.
Human frozen PBMCs were purchased from StemCells Technologies. Cells were rapidly thawed in 37° C. water bath and resuspended in fresh assay media consisting of RPMI 1640 Medium containing 1% sodium pyruvate, 10 mM HEPES, 2.5 g/L glucose and 55 μM 2-Mercaptoethanol. Cell density was adjusted to 8.1×10^5 cells/mL. Cells were primed by adding lipopolysaccharide (Invivogen Ultrapure lipopolysaccharide from E. coli, tlrl-3pelps) at a final concentration of 100 ng/mL in cell suspension. 37 μL of cell suspension with LPS was seeded per well of a 384 well plate and incubated for 3 hours at 37° C. and 5% CO2. After priming, PBMCs were preincubated with serially diluted test compounds with starting concentration of 40 μM followed by 2-fold dilution for a 20-point curve or vehicle (DMSO) for 30 min in assay media at 37° C. and 5% CO2. Cells were then stimulated with 10 μM nigericin (Invivogen, tlrl-nig-5) for 90 min at 37° C. and 5% CO2 to activate NLRP3 dependent inflammasome pathway and IL-1β release in cell culture supernatant. Cells were centrifuged at 1200 RPM for 1 min and 40 μL of supernatant was transferred into fresh plates and stored at −80° C. until IL-1β analysis.
16 μL of supernatant was added to white 384 well HTRF plates, followed by addition of 4 μL of HTRF cocktail in each well. Plates were quickly centrifuged, sealed and incubated overnight at room temperature. Next day, HTRF signal was read on a Pherastar and ratio of 665/620 was calculated based on manufacturer's protocol to obtain concentration of IL-1β in cell culture supernatant.

[1] = LPS 100 ng/mL priming, read-out: IL-1B pIC50 (converted)
[2] = PBMC, LPS priming, read-out: PMBC IL-1β IC50
[3] = IL-1B pIC50 (μM), LPS 100 ng/mL priming

T1 sequence (Q96P20 whole entry): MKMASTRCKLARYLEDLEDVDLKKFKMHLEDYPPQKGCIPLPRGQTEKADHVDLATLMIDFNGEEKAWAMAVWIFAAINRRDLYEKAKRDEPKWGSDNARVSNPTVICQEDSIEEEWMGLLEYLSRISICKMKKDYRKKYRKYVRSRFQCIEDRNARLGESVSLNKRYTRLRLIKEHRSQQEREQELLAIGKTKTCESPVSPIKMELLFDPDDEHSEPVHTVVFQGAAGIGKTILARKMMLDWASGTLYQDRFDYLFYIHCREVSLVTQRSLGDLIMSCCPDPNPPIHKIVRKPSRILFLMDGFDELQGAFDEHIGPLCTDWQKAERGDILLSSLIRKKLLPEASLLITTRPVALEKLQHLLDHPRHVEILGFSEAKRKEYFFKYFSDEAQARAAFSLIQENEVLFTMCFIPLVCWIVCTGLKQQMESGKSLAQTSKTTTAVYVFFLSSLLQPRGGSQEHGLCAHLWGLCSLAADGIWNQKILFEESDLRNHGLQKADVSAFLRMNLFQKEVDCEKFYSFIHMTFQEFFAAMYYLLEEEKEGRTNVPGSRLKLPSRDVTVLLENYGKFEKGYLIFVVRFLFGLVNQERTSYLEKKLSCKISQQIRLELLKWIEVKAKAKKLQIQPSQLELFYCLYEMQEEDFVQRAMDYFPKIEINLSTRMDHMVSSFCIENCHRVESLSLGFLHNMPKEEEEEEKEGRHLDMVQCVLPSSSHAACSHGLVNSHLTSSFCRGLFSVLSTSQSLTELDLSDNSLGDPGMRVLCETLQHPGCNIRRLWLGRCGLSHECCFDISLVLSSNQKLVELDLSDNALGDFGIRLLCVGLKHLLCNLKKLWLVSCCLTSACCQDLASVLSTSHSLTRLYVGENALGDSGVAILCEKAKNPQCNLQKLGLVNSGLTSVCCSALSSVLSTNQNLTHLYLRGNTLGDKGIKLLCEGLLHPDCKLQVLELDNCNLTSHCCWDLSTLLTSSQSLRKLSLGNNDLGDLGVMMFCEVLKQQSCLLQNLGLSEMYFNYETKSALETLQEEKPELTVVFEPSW

Compound	IC50 [1] [µM]	IC50 [2] [µM]	further results
O=C(Nc1nc(-c2ccccc2)cc2c1CCC2)NS(=O)(=O)c1cnn2c1OCCC2 [drawing 388]	> 10	–	–
C=C(C)c1cncc(C(=C)C)c1NC(=O)NS(=O)(=O)c1cnn2c1OCCC2 [drawing 392]	> 10	–	–
O=C(NC(c1ccccc1)c1ccccc1)NS(=O)(=O)c1cnn2c1OCCC2 [Example 15, N-(benzhydrylcarbamoyl)-6,7-dihydro-5H-pyrazolo[5,1-b][1,3]oxazine-3-sulfonamide]	–	> 10	–
Cc1cc(NC(=O)NS(=O)(=O)c2cnn3c2OCCC3)n(C(C)C)n1 [Example 43, N-((1-isopropyl-3-methyl-1H-pyrazol-5-yl)carbamoyl)-6,7-dihydro-5H-pyrazolo[5,1-b][1,3]oxazine-3-sulfonamide]	–	> 10	–
Cc1ccc(Br)c(NC(=O)NS(=O)(=O)c2cnn3c2OCCC3)n1 [Example 20, N-((3-bromo-6-methylpyridin-2-yl)carbamoyl)-6,7-dihydro-5H-pyrazolo[5,1-b][1,3]oxazine-3-sulfonamide]	–	> 10	–
CC(C)c1nn(C)c(C(C)C)c1NC(=O)NS(=O)(=O)c1cnn2c1OCCC2 [drawing 391]	1 to 10	–	–
CC(C)(C)c1cc(C(C)(C)C)nc(NC(=O)NS(=O)(=O)c2cnn3c2OCCC3)n1 [drawing 387]	> 10	–	–
O=C(NN1CCCCCC1)NS(=O)(=O)c1cnn2c1OCCC2 [Example 14, N-(azepan-1-ylcarbamoyl)-6,7-dihydro-5H-pyrazolo[5,1-b][1,3]oxazine-3-sulfonamide]	–	> 10	–
O=C(NN1CCOc2ccccc21)NS(=O)(=O)c1cnn2c1OCCC2	> 10	–	–
CC1(C)CCc2ccccc2C1NC(=O)NS(=O)(=O)c1cnn2c1OCCC2 (stereo not drawn) [Example 1, N-((2,2-dimethyl-1,2,3,4-tetrahydronaphthalen-1-yl)carbamoyl)-6,7-dihydro-5H-pyrazolo[5,1-b][1,3]oxazine-3-sulfonamide]	–	> 10	–
CC1(C)CCc2ccccc2C1NC(=O)NS(=O)(=O)c1cnn2c1OCCC2 (stereo not drawn) [drawing 366]	> 10	–	–
Cc1cc(C)nc(NC(=O)NS(=O)(=O)c2cnn3c2OCCC3)n1 [drawing 390]	> 10	–	–
O=C(NC1(c2ccccc2)CCCCCC1)NS(=O)(=O)c1cnn2c1OCCC2 [Example 12, N-((1-phenylcycloheptyl)carbamoyl)-6,7-dihydro-5H-pyrazolo[5,1-b][1,3]oxazine-3-sulfonamide]	–	> 10	–
O=C(NN1CC2CCCC2C1)NS(=O)(=O)c1cnn2c1OCCC2 (single isomer, unassigned) [Example 13a, N-((hexahydrocyclopenta[c]pyrrol-2(1H)-yl)carbamoyl)-6,7-dihydro-5H-pyrazolo[5,1-b][1,3]oxazine-3-sulfonamide]	–	> 10	–
O=C(Nc1nc(Cl)cc(Cl)n1)NS(=O)(=O)c1cnn2c1OCCC2 [drawing 369]	> 10	–	–
CC(C)(C)c1cc(NC(=O)NS(=O)(=O)c2cnn3c2OCCC3)n(C(C)(C)C)n1 [Example 36, N-((1,3-di-tert-butyl-1H-pyrazol-5-yl)carbamoyl)-6,7-dihydro-5H-pyrazolo[5,1-b][1,3]oxazine-3-sulfonamide, ammonia]	–	> 10	–
CC1(C)COc2c(S(=O)(=O)NC(=O)NC3CCCCc4ccccc43)cnn2C1 (stereo not drawn) [Example 46, 6,6-dimethyl-N-((6,7,8,9-tetrahydro-5H-benzo[7]annulen-5-yl)carbamoyl)-6,7-dihydro-5H-pyrazolo[5,1-b][1,3]oxazine-3-sulfonamide]	–	> 10	–
O=C(NC1c2ccccc2-c2ccccc21)NS(=O)(=O)c1cnn2c1OCCC2 [drawing 370]	> 10	–	–
COc1cc(OC)nc(NC(=O)NS(=O)(=O)c2cnn3c2OCCC3)n1 [drawing 383]	–	–	IC50 [3]: > 10 µM
O=C(NN1CCCCCC1)NS(=O)(=O)c1cnn2c1OCCC2 [drawing 379]	> 10	–	–
CC1(C)COc2c(S(=O)(=O)NC(=O)NC3CCCCc4ccccc43)cnn2C1 (stereo not drawn) [drawing 413]	> 10	–	–

Compound	IC50 [1] [µM]	IC50 [2] [µM]	further results
CC(C)c1cc(Cl)nc(NC(=O)NS(=O)(=O)c2cnn3c2OCCC3)n1 [drawing 381]	> 10	–	–
O=C(NC1c2ccccc2CC12CCOCC2)NS(=O)(=O)c1cnn2c1OCCC2 (stereo not drawn) [drawing 367]	> 10	–	–
CC1CCCC(C)N1NC(=O)NS(=O)(=O)c1cnn2c1OCCC2 (stereo not drawn)	> 10	–	–
O=C(NC(c1ccccc1)c1ccccc1)NS(=O)(=O)c1cnn2c1OCCC2 [drawing 380]	> 10	–	–
CC1Cc2ccccc2C1NC(=O)NS(=O)(=O)c1cnn2c1OCCC2 (stereo not drawn) [Example 6, N-((2-methyl-2,3-dihydro-1H-inden-1-yl)carbamoyl)-6,7-dihydro-5H-pyrazolo[5,1-b][1,3]oxazine-3-sulfonamide]	–	> 10	–
C=C(C)c1cncc(C(=C)C)c1NC(=O)NS(=O)(=O)c1cnn2c1OCCC2 [Example 27, N-((3,5-di(prop-1-en-2-yl)pyridin-4-yl)carbamoyl)-6,7-dihydro-5H-pyrazolo[5,1-b][1,3]oxazine-3-sulfonamide]	–	> 10	–
O=C(Nc1c(-c2ccccc2)nc2ccccn12)NS(=O)(=O)c1cnn2c1OCCC2 [drawing 375]	> 10	–	–
Cc1ccc(Br)c(NC(=O)NS(=O)(=O)c2cnn3c2OCCC3)n1 [drawing 385]	> 10	–	–
CC1CCCC(C)N1NC(=O)NS(=O)(=O)c1cnn2c1OCCC2 (mixture of isomers) [Example 7, N-((2,6-dimethylpiperidin-1-yl)carbamoyl)-6,7-dihydro-5H-pyrazolo[5,1-b][1,3]oxazine-3-sulfonamide]	–	> 10	–
CC(C)(C)c1cc(NC(=O)NS(=O)(=O)c2cnn3c2OCCC3)n(C(C)(C)C)n1 [drawing 403]	> 10	–	–
O=C(NN1CC2CCCC2C1)NS(=O)(=O)c1cnn2c1OCCC2 (stereo not drawn)	> 10	–	–
CC1Cc2ccccc2C1NC(=O)NS(=O)(=O)c1cnn2c1OCCC2 (stereo not drawn) [drawing 371]	> 10	–	–
Cc1nc(NC(=O)NS(=O)(=O)c2cnn3c2OCCC3)nc2c1CCCC2 [drawing 389]	> 10	–	–
COc1cc(C)nc(NC(=O)NS(=O)(=O)c2cnn3c2OCCC3)n1 [drawing 384]	–	–	IC50 [3]: > 10 µM
O=C(Nc1c(-c2ccccc2)nc2ccccn12)NS(=O)(=O)c1cnn2c1OCCC2 [Example 10, N-((2-phenylimidazo[1,2-a]pyridin-3-yl)carbamoyl)-6,7-dihydro-5H-pyrazolo[5,1-b][1,3]oxazine-3-sulfonamide]	–	> 10	–
O=C(NC1c2ccccc2-c2ccccc21)NS(=O)(=O)c1cnn2c1OCCC2 [Example 5, N-((9H-fluoren-9-yl)carbamoyl)-6,7-dihydro-5H-pyrazolo[5,1-b][1,3]oxazine-3-sulfonamide]	–	> 10	–
O=C(NC1(c2ccccc2)CCCCCC1)NS(=O)(=O)c1cnn2c1OCCC2 [drawing 377]	> 10	–	–
O=C(Nc1nc(-c2ccccc2)cc(C(F)(F)F)n1)NS(=O)(=O)c1cnn2c1OCCC2 [drawing 382]	> 10	–	–
O=C(Nc1c2c(n3c1CCC3)CCCC2=O)NS(=O)(=O)c1cnn2c1OCCC2 [Example 29, N-((8-oxo-2,3,5,6,7,8-hexahydro-1H-pyrrolo[1,2-a]indol-9-yl)carbamoyl)-6,7-dihydro-5H-pyrazolo[5,1-b][1,3]oxazine-3-sulfonamide]	–	> 10	–
Cc1cc(C2CC2)nc(NC(=O)NS(=O)(=O)c2cnn3c2OCCC3)n1 [drawing 386]	> 10	–	–
O=C(NC1CCOc2ccccc21)NS(=O)(=O)c1cnn2c1OCCC2 (racemic) [Example 9, N-(chroman-4-ylcarbamoyl)-6,7-dihydro-5H-pyrazolo[5,1-b][1,3]oxazine-3-sulfonamide]	–	> 10	–
